Experimental data from patent US20260083751A1, “ALLOSTERIC MODULATORS OF ANDROGEN RECEPTOR COACTIVATOR RECRUITMENT FOR CRPC THERAPY” (University of Pittsburgh – Of the Commonwealth System of …, priority 2022, published 2026).
Like-named read-outs stand apart in the source and are kept apart here.

What was measured:
Type in all cases: cell-based
[1] = Cytotoxicity counter screens to the reporter assays; conditions: counter screens to M2H, PSA-Luc, AR-V7 reporters, read-out: IC50 in cytotoxicity counter screen
[2] = test system: AR-V7 directed transcriptional activation in PC3-AR-V7-EGFP cells; assay: AR-V7 driven PSA6.1-Luc and UBE2C-Luc reporter assays, results stated jointly; conditions: both reporters; read-out: IC50s, both PSA6-6.1-Luc and UBE2C-Luc reporters in PC3-AR-V7-EGFP cells (potency range in words)
Protocol: PSA6.1 Promoter Driven Luciferase Reporter Assay in PC3-AR-V7-GFP Cells: PC3-AR-V7-GFP cells were bulk transfected with a mixture of FuGENE® HD transfection agent and the PSA-6.1-Luc reporter plasmid (20 ng/well) combined at a 3:1 (μL:μg) ratio in Opti-MEM™ medium (Gibco, Gaithersburg, MD) that had been incubated for 25 min at RT before being added to PC3-AR-V7-GFP cells that were suspended in RPMI 1640 (Gibco) media containing 1% L-glutamine (Invitrogen), and 10% fetal bovine serum (Gemini Bio-products). Bulk transfected PC3-AR-V7-GFP cells were seeded into white opaque 384-well assay plates (Greiner Bio-one, #781080) at 3,000 cells per well in a volume of 40 μL and incubated at 5% CO2, 37° C., and 95% humidity for 24 h. After 24 h, 5 μL of compounds were transferred to assay wells and the plates were returned to the incubator for an additional 24 h before 25 μL of BrightGlo® luciferase reagent (Promega) was added to the wells and the RLU's were captured on a SpectraMax® M5e plate reader (Molecular Devices LLC) as described previously (Fancher et al., Assay Drug Dev Technol. 2019, 17:364-386).
UBE2C Promoter Driven Luciferase Reporter Assay in PC3-AR-V7-GFP Cells: The pGL4.28-UBE2C 20bpX3 luciferase reporter plasmid (Xu et al., Cancer Res 2015, 75:3663-71) was provided by Dr. Yan Dong from Tulane University. […]

DU-145 cells = assay: Prostate cancer cell line growth inhibition assay, DU-145; conditions: read-out: AR negative DU-145 GI50
Protocol: (§1) Prostate Cancer Cell Line Growth Inhibition Assays: The PC-3, DU-145, LNCaP, C4-2, and 22Rv1 PC cell line growth inhibition assays have been described previously (Fancher et al., Assay Drug Dev Technol. 2016, 14:453-477; Fancher et al., Assay Drug Dev Technol. 2019, 17:364-386). On day 1, each PC cell line was harvested, counted, and seeded into two 384-well assay plates, a time zero (T0) and a time 72 h (T72) plate. […] On day 2, 25 μL of the CellTiter-Glo® (CTG) (Promega Corporation, Madison, WI) detection reagent was dispensed into the wells of the TO assay plate using a Matrix electronic multichannel pipette, and the RLUs were captured on the SpectraMax® M5e (Molecular Devices LLC, Sunnyvale, CA) microtiter plate reader. […] On day 5, 25 μL of the CTG detection reagent was dispensed into the wells of the T72 assay plate using a Matrix electronic multichannel pipette, and the RLU's were captured on the SpectraMax® M5e microtiter plate reader platform.
(§2) For the 96-well AR-LBD H^3-DHT radioligand binding assay, eight minimum and maximum plate control wells were utilized to normalize the data. […] To normalize the 72 h compound exposure PC growth inhibition data, the signals from the compound treated wells were processed and expressed as % of the T72 DMSO plate controls. […]

PC-3 cells = assay: Prostate cancer cell line growth inhibition assay, PC-3; conditions: read-out: AR negative PC-3 GI50
Protocol: as §1, §2

IC50 [2] | GI50 (DU-145 cells; Homo sapiens, DU-145, 72 h) | GI50 (PC-3 cells; Homo sapiens, PC-3, 72 h) | GI50 (DU-145 cells; 72 h, listed as 1) | GI50 (PC-3 cells; 72 h, listed as 1) | Structure (SMILES) | IC50 [1] | IC50 at 24 h ([1]; human, PC3-AR-V7-EGFP cells)
10 to 100 µM |  |  |  |  | Cc1nc(N)cc(N2CCOc3c(O)cc(-c4ccccc4C)cc3C2)n1 [Compound S1-2] | 45.6 µM | 45.9 µM
 | 15.9 µM | 28.4 µM |  |  | Cc1c(-c2ccccc2F)[nH]c2ccc(CNC(=O)CCc3cn[nH]c3)cc12 [Compound S3-11] |  | 
10 to 100 µM |  |  | 60.5 µM | 61.1 µM | Cc1ccccc1-c1cc(O)c2c(c1)CN(c1nc(C(N)=O)cs1)CCO2 [Compound S1-1] |  | 
